Test results as given in PubChem BioAssay AID1963842 (Molecular Pharmacology Branch, DTP, NCI, 2024).
pIC50: −log10 of the molar value.

Tested on: 677734-321-R-J1-PDC complex spheroid viability
Experiment: Anticancer human tumor 677734-321-R-J1-PDC patient-derived soft tissue sarcoma cell line growth inhibition [POLQ]
Details: for pIC50: curve of first compound; for viability, T/C: stronger effect = lower value
Procedure, shortened: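 Patient-derived tumour cells were co-cultured with HUVEC and mesenchymal stem cells as multicellular spheroids at 37 °C. They were treated with POLQ inhibitors (novobiocin, ART-558, RP6685) alone or combined with other agents. Top concentrations were at or near clinical Cmax (otherwise 10 microM; SN-38 at 1 microM), decreasing in half-log steps.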

[1] = second compound 0.0316 µM, first compound 0.0316 µM
[2] = second compound 0.0316 µM, first compound 0.1 µM
[3] = second compound 0.0316 µM, first compound 0.316 µM
[4] = second compound 0.0316 µM, first compound 1 µM
[5] = second compound 0.0316 µM, first compound 3.16 µM
[6] = second compound 0.0316 µM, first compound 10 µM
[7] = second compound 0.1 µM, first compound 0.0316 µM
[8] = second compound 0.1 µM, first compound 0.1 µM
[9] = second compound 0.1 µM, first compound 0.316 µM
[10] = second compound 0.1 µM, first compound 1 µM
[11] = second compound 0.1 µM, first compound 3.16 µM
[12] = second compound 0.1 µM, first compound 10 µM
[13] = second compound 0.316 µM, first compound 0.0316 µM
[14] = second compound 0.316 µM, first compound 0.1 µM
[15] = second compound 0.316 µM, first compound 0.316 µM
[16] = second compound 0.316 µM, first compound 1 µM
[17] = second compound 0.316 µM, first compound 3.16 µM
[18] = second compound 0.316 µM, first compound 10 µM
[19] = second compound 1 µM, first compound 0.0316 µM
[20] = second compound 1 µM, first compound 0.1 µM
[21] = second compound 1 µM, first compound 0.316 µM
[22] = second compound 1 µM, first compound 1 µM
[23] = second compound 1 µM, first compound 3.16 µM
[24] = second compound 1 µM, first compound 10 µM
[25] = second compound 3.16 µM, first compound 0.0316 µM
[26] = second compound 3.16 µM, first compound 0.1 µM
[27] = second compound 3.16 µM, first compound 0.316 µM
[28] = second compound 3.16 µM, first compound 1 µM
[29] = second compound 3.16 µM, first compound 3.16 µM
[30] = second compound 3.16 µM, first compound 10 µM
[31] = second compound 10 µM, first compound 0.0316 µM
[32] = second compound 10 µM, first compound 0.1 µM
[33] = second compound 10 µM, first compound 0.316 µM
[34] = second compound 10 µM, first compound 1 µM
[35] = second compound 10 µM, first compound 3.16 µM
[36] = second compound 10 µM, first compound 10 µM
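Note: spheroids exposed to compounds for one week.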
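Throughout, for viability, T/C: 100% = vehicle DMSO treated spheroids.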

## COc1cc(C2c3cc4c(cc3C(OC3OC5COC(C)OC5C(O)C3O)C3COC(=O)C23)OCO4)cc(OC)c1O (stereo unspecified) + Nc1ccc(C#CCN(C(=O)Cc2ncc(C(F)(F)F)cc2C(F)(F)F)c2ccc(F)cc2)nn1
Second compound 0.0316 µM
  pIC50: 6.38
Second compound 0.1 µM
  pIC50: 6.32
Second compound 0.316 µM
  pIC50: 6.50
Second compound 1 µM
  pIC50: 6.43
Second compound 3.16 µM
  pIC50: 6.47
Second compound 10 µM
  pIC50: 6.66
[1]
  viability, T/C: 98.2%
[2]
  viability, T/C: 93.8%
[3]
  viability, T/C: 47.1%
[4]
  viability, T/C: 37.2%
[5]
  viability, T/C: 16.8%
[6]
  viability, T/C: 10.4%
[7]
  viability, T/C: 97.4%
[8]
  viability, T/C: 92.5%
[9]
  viability, T/C: 45.8%
[10]
  viability, T/C: 46%
[11]
  viability, T/C: 11.4%
[12]
  viability, T/C: 8.28%
[13]
  viability, T/C: 122%
[14]
  viability, T/C: 102%
[15]
  viability, T/C: 45%
[16]
  viability, T/C: 29.6%
[17]
  viability, T/C: 12.6%
[18]
  viability, T/C: 10.6%
[19]
  viability, T/C: 111%
[20]
  viability, T/C: 75.3%
[21]
  viability, T/C: 54%
[22]
  viability, T/C: 36.2%
[23]
  viability, T/C: 15.4%
[24]
  viability, T/C: 8.43%
[25]
  viability, T/C: 101%
[26]
  viability, T/C: 89.2%
[27]
  viability, T/C: 41.8%
[28]
  viability, T/C: 36.6%
[29]
  viability, T/C: 12.5%
[30]
  viability, T/C: 10%
[31]
  viability, T/C: 108%
[32]
  viability, T/C: 72.6%
[33]
  viability, T/C: 31%
[34]
  viability, T/C: 35.5%
[35]
  viability, T/C: 12.5%
[36]
  viability, T/C: 8.79%

## Nc1ccn(C2OC(CO)C(O)C2(F)F)c(=O)n1 (stereo unspecified) + Nc1ccc(C#CCN(C(=O)Cc2ncc(C(F)(F)F)cc2C(F)(F)F)c2ccc(F)cc2)nn1
Second compound 0.0316 µM
  pIC50: > 7.50
Second compound 0.1 µM
  pIC50: > 7.50
Second compound 0.316 µM
  pIC50: > 7.50
Second compound 1 µM
  pIC50: > 7.50
Second compound 3.16 µM
  pIC50: > 7.50
Second compound 10 µM
  pIC50: 7.17
[1]
  viability, T/C: 15.4%
[2]
  viability, T/C: 11.3%
[3]
  viability, T/C: 11.7%
[4]
  viability, T/C: 10.9%
[5]
  viability, T/C: 10.4%
[6]
  viability, T/C: 5.84%
[7]
  viability, T/C: 17.8%
[8]
  viability, T/C: 13%
[9]
  viability, T/C: 11.4%
[10]
  viability, T/C: 11.2%
[11]
  viability, T/C: 8.25%
[12]
  viability, T/C: 6.36%
[13]
  viability, T/C: 18.4%
[14]
  viability, T/C: 11.9%
[15]
  viability, T/C: 13%
[16]
  viability, T/C: 12.1%
[17]
  viability, T/C: 11.4%
[18]
  viability, T/C: 6.35%
[19]
  viability, T/C: 28.2%
[20]
  viability, T/C: 11.8%
[21]
  viability, T/C: 12.3%
[22]
  viability, T/C: 13.7%
[23]
  viability, T/C: 10.3%
[24]
  viability, T/C: 6.64%
[25]
  viability, T/C: 46.4%
[26]
  viability, T/C: 15.8%
[27]
  viability, T/C: 13.1%
[28]
  viability, T/C: 13.7%
[29]
  viability, T/C: 9.36%
[30]
  viability, T/C: 7.65%
[31]
  viability, T/C: 87.1%
[32]
  viability, T/C: 31.4%
[33]
  viability, T/C: 14.1%
[34]
  viability, T/C: 14.3%
[35]
  viability, T/C: 10.6%
[36]
  viability, T/C: 9.19%

## O=c1[nH]cc(F)c(=O)[nH]1 + Nc1ccc(C#CCN(C(=O)Cc2ncc(C(F)(F)F)cc2C(F)(F)F)c2ccc(F)cc2)nn1
Second compound 0.0316 µM
  pIC50: < 5.00
Second compound 0.1 µM
  pIC50: < 5.00
Second compound 0.316 µM
  pIC50: < 5.00
Second compound 1 µM
  pIC50: < 5.00
Second compound 3.16 µM
  pIC50: < 5.00
Second compound 10 µM
  pIC50: < 5.00
[1]
  viability, T/C: 101%
[2]
  viability, T/C: 113%
[3]
  viability, T/C: 93.8%
[4]
  viability, T/C: 91.9%
[5]
  viability, T/C: 68.7%
[6]
  viability, T/C: 54.7%
[7]
  viability, T/C: 117%
[8]
  viability, T/C: 112%
[9]
  viability, T/C: 101%
[10]
  viability, T/C: 108%
[11]
  viability, T/C: 64.9%
[12]
  viability, T/C: 54.4%
[13]
  viability, T/C: 103%
[14]
  viability, T/C: 105%
[15]
  viability, T/C: 119%
[16]
  viability, T/C: 76.5%
[17]
  viability, T/C: 66.5%
[18]
  viability, T/C: 54.9%
[19]
  viability, T/C: 107%
[20]
  viability, T/C: 93.8%
[21]
  viability, T/C: 96.4%
[22]
  viability, T/C: 90.8%
[23]
  viability, T/C: 61.3%
[24]
  viability, T/C: 56.4%
[25]
  viability, T/C: 102%
[26]
  viability, T/C: 99%
[27]
  viability, T/C: 103%
[28]
  viability, T/C: 89%
[29]
  viability, T/C: 65.1%
[30]
  viability, T/C: 53.3%
[31]
  viability, T/C: 101%
[32]
  viability, T/C: 110%
[33]
  viability, T/C: 95.5%
[34]
  viability, T/C: 94.7%
[35]
  viability, T/C: 68.9%
[36]
  viability, T/C: 54.5%
